Patent publication US7485710B2, “Nucleic acids coding for adhesion factor of group B streptococcus, adhesion factors of group B streptococcus and further uses thereof” (priority 2002, dated 2009)

Columns and labels:
GBS strain 6313 = experiment: Binding of radiolabelled human proteins to GBS; set-up: species or system Streptococcus agalactiae; conditions: untreated bacteria
Protocol: Purified human fibrinogen was radiolabelled with ^125I, using the chloramin T method (Hunter and Greenwood, 1962). Binding of labelled fibrinogen to GBS was performed essentially as described by Chhatwal et al. (Chhatwal, Muller, and Blobel, 1983). Briefly, overnight cultures of GBS were pelleted by centrifugation, washed twice with phosphate-buffered saline supplemented with 0.02% Tween 20 (PBST) and adjusted photometrically to a transmission of 10% at 600 nm. A total of 0.2 ml of the bacterial suspension was added to 20 μl of ^125I-labelled fibrinogen containing 23 ng of fibrinogen. After incubation for 1 h at room temperature, the streptococci were sedimented by centrifugation and washed with 1 ml of PBST. The radioactivity of the pellet was finally measured in a gamma counter (Packard Instruments). The amount of bacterial-bound fibrinogen was calculated as the percentage of total radiolabelled fibrinogen added to the bacteria. In inhibition experiments, the binding of 23 ng of radiolabelled fibrinogen to 0.2 ml of GBS (T=10%) was determined in the presence of various amounts of FbsA fusion proteins, Bsp fusion protein or synthetic peptides. Each experiment was repeated at least three times in triplicate.
GBS strain 6313, belonging to serotype III, was tested in binding experiments for its interaction with radiolabelled human vitronectin, laminin, fibronectin, fibrinogen, and IgG. […]

A549 cells [1] = experiment: Epithelial cell adherence and internalization assay of GBS 6313 in presence of proteins; type: cell-based, human; conditions: for adherence of GBS 6313 to A549 cells in the presence of fusion protein / invasion of A549 cells by GBS 6313 in the presence of fusion protein: 100 μg/ml fusion protein (FIG. 19)
Protocol: The adherence of GBS 6313 to A549 cells (A) and its internalization into these cells (B) was arbitrarily set to 100% and the results obtained in the presence of the different fusion proteins was related to these values. Each experiment was performed at least three times in triplicate.
Adherence of GBS to epithelial cells and internalization into epithelial cells was assayed essentially as described previously (Caparon et al., 1991; Rubens et al. 1992). Briefly, A549 cells were transferred to 24-well tissue culture plates at approximately 4×10^5 cells per well and cultivated overnight in RPMI (Gibco BRL) tissue culture medium, supplemented with 10% of fetal calf serum. After replacement of the medium with 1 ml of fresh medium, the cells were infected with 5×10^6 streptococci per well and incubated at 37° C. for 2 h. The non-adherent bacteria were removed by washing three times with PBS. In adherence assays, the epithelial cells were subsequently detached from the well by the addition of trypsin/EDTA and lysed by adding 300 μl of distilled water. Adherent bacteria were quantitated by plating serial dilutions of the lysate onto THY agar plates. For internalization assays the epithelial cells were incubated after 2 h of infection for another 2 h in tissue culture medium supplemented with penicilling G (10 U) and streptomycin (0.01 mg) to kill extracellular bacteria. After three washes with PBS, the epithelial cells were detached by the addition of trypsin/EDTA and lysed in 300 μl of distilled water. The amount of intracellular bacteria was quantified by plating serial dilutions of the lysate onto THY agar plates. Each experiment was repeated at least three times in triplicate. […]
Adherence of S. agalactiae to A549 and HEL299 cells and internalization into these cells was assayed essentially as described in Example 1 for A549 cells. In some experiments, A549 cells were preincubated with different amounts of FbsA protein or FbsA-derived peptides in RPMI medium for 30 min with three subsequent washes with PBS.

[2] = Subcutaneous immunization of mice and probing of fusion proteins with mice sera; type: in vivo; conditions: boost after three weeks, serum after six weeks, 1:1000 dilution
From the text: Serial dilutions of the fusion proteins PabA, PabB, and PabD were spotted onto nitrocellulose and probed with a 1:1000 dilution of the mice sera against the respective proteins. Bound antibodies were labelled with an anti-mouse-HRP conjugate and visualized by chemiluminescence.
To test, if the proteins PabA, PabB and PabD elicit an immune response in mice, purified PabA, PabB and PabD fusion protein was used for the subcutaneous immunization of mice. The mice were boosted after three weeks and serum was collected six weeks after the first immunization. Serial dilutions of the PabA, PabB, and PabD fusion proteins were blotted onto nitrocellulose and probed with the mice sera against the different proteins.

A549 cells [3] = experiment: Interaction of protein-coated latex beads with A549 cells (scanning electron microscopy); type: cell-based, human
Protocol: BSA-coated latex beads were used as a control.
Latex beads were either coated with BSA (A) or FbsA fusion protein (B-D) and the interaction of the coated beads with the lung epithelial cell line A549 was analyzed by scanning electron microscopy.
Approximately […] latex beads (3 μm diameter, Sigma) were washed tree times in PBS and then coated with 300 μg of fusion protein or BSA in 500 μl PBS overnight at 4° C. Coated beads were washed once in PBS and then blocked with 200 μl of 10 mg/ml BSA in PBS for 1 h at room temperature. Beads were washed twice in PBS and once in RPMI+10% FCS and then resupended in 1 ml of RPMI+10% FCS. 300 μl of beads were added to approximately 4×10^5 A549 cells in 24-well plates. The cells were incubated for 1 h at 37° C. (5% CO2), washed five times with PBS and fixed in a solution containing 3% glutaraldehyde and 5% formaldehyde in cacodylate bluffer for 45 min on ice. The samples were washed with cacodylate buffer, dehydrated in a graded series of acetone and subjected to critical point drying with CO2. Samples were then coated with a 10 nm thick gold film and examined by scanning electron microscopy as described previously (Reinscheid et al., 2001a).
Approximately 1×10^9 latex beads (3 μm diameter, Sigma) were washed three times in 25 mM 2-N-morpholinoethanesulfonic acid (MES), pH 6.8. One half was resuspended in 1.0 ml MES buffer containing 500 μg/ml FbsA fusion protein and the remaining half was resuspended in 1.0 ml MES buffer. The beads were incubated overnight at 4° C. with end-over-end rotation. After pelleting of the beads by centrifugation, the amount of remaining protein in the supernatant was determined with a Bradford protein assay kit (BioRad). The beads were washed once with MES buffer and blocked for 1 h with 10 mg/ml BSA in MES buffer at room temperature. The beads were washed twice with MES buffer, once with RPMI+10% FCS, and resuspended in RPMI+10% FCS. Confluent A549 cells in 24-well plates were inoculated with 2×10^8 beads per well in a total volume of 1.0 ml. The bead monolayer mixtures were incubated for 2 h at 37° C. in a 5% CO2 atmosphere. Cells were washed five times with PBS and fixed with 3% paraformaldehyde and 4% glutaraldehyde in […] cacodylate buffer for scanning electron microscopy. Scanning electron microscopy was performed with a Zeiss DSM 962 microscope.

[4] = 1 μg/ml of externally added fibrinogen
[5] = fibrinogen 0.1 μg/ml to 1.0 μg/ml, fibronectin 10 μg/ml, data not shown

fibrinogen: purified human fibrinogen (Sigma), 330 kDa plasma glycoprotein [reference compound]
radiolabelled protein accumulated on the surface of GBS 6313 (of total) (GBS strain 6313): about 50%
reduction of the adherence of GBS 6313 to A549 cells (A549 cells [1]; [4]): 90%
reduction of the invasion of A549 cells by GBS 6313 (A549 cells [1]; [4]): 90%
bacterial adherence to A549 cells after pre-incubation of S. agalactiae 6313 with protein (A549 cells [1]; [5]): dose-dependent inhibition
bacterial invasion of A549 cells after pre-incubation of S. agalactiae 6313 with protein (A549 cells [1]; [5]): dose-dependent inhibition

PabA
immune response in mice (detection of fusion protein by mice sera) [2]: high immunogenicity
adherence of GBS 6313 to A549 cells in the presence of fusion protein (A549 cells [1]): significantly reduced
invasion of A549 cells by GBS 6313 in the presence of fusion protein (A549 cells [1]): significantly reduced
binding of protein-coated latex beads to A549 cells (A549 cells [3]): significant binding

B1: PabD: C-terminally his-tagged fusion protein of GBS 6313 PabD (gbs0851) devoid of signal peptide (protein)
chain: DDNFEMPTRYVKMSEKSKAFYQRLQEKQRKAHTTVKTFNNSEIRHQLPLKQEKARNDIYNLGILISQESKGFIQRIDNAYSLENVSDIVNEAQALYKRNYDLFEKIKSTRDKVQVLLASHQDNTDLKNFYAELDDMYEHVYLNESRVEAINRNIQKYN
modifications: left off: small tags and cut ends
notes: C-terminally his-tagged fusion protein of GBS 6313 PabD (gbs0851) devoid of signal peptide
immune response in mice (detection of fusion protein by mice sera) [2]: high immunogenicity
adherence of GBS 6313 to A549 cells in the presence of fusion protein (A549 cells [1]): significantly reduced
invasion of A549 cells by GBS 6313 in the presence of fusion protein (A549 cells [1]): significantly reduced
binding of protein-coated latex beads to A549 cells (A549 cells [3]): significant binding
